Tests used:
[1] = tested on: SMN2 minigene mRNA (SMN2-A minigene) in HEK293H cells; assay: SMN2 minigene mRNA splicing RT-qPCR assay in cultured cells; format: cell-based, human; settings: Homo sapiens, HEK293-H; concentration increasing full length SMN2 mRNA 1.5-fold relative to vehicle-treated cells; HEK293H cells with SMN2-A minigene, 24 hours, 7-point concentration data; read-out: EC1.5x for production of full length SMN2 mRNA
How it was run: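 EC1.5× values derive from a 24 h treatment of SMN2-A minigene HEK293H cells and GAPDH-normalized RT-qPCR of exon 7-included minigene mRNA relative to vehicle-treated cells.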

[2] = tested on: Smn protein in SMA patient fibroblast cells (GM03813); assay: Smn protein assay in cultured cells (SMN HTRF); format: cell-based, human; settings: SMA patient fibroblast cells, 48 hours; for maximum fold (Fold) increase of Smn protein: 7-point concentration data, fold relative to vehicle control; for EC1.5x for Smn protein expression: 7-point concentration curve, SMN HTRF, concentration producing 1.5 times Smn protein vs DMSO vehicle control
How it was run: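 Cells were cultured 72 h, seeded at 5,000/well and dosed with seven concentrations (3.16-fold apart) for 48 h. HTRF on lysates, read at 665 and 620 nm, gave blank-corrected ΔF values relative to DMSO. Potency is reported as EC1.5×, efficacy as maximal fold Smn increase.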

SMILES	EC (1.5-fold increase) [1]	maximum fold (Fold) increase of Smn protein [2]	melting point	EC1.5x for Smn protein expression [2]
COc1cc(F)cc(-c2cc(=O)n3cc(N4CCNCC4)ccc3n2)c1 [Compound 139, 2-(3-fluoro-5-methoxyphenyl)-7-(piperazin-1-yl)-4H-pyrido[1,2-a]pyrimidin-4-one]	1 to 3 µM	*** (a fold increase between >1.35 and ≤1.5 is indicated by three stars (***))	168 to 170 °C	
COc1cc(F)cc(-c2cc(=O)n3cc(N4CCN[C@@H](C)C4)ccc3n2)c1 [Compound 140, 2-(3-fluoro-5-methoxyphenyl)-7-[(3S)-3-methylpiperazin-1-yl]-4H-pyrido[1,2-a]pyrimidin-4-one]	1 to 3 µM	*** (a fold increase between >1.35 and ≤1.5 is indicated by three stars (***))	154 to 156 °C	
Cc1cn2cc(-c3cc(=O)n4cc(N5CCNCC5)ccc4n3)cc(C)c2n1 [Compound 141, 2-(2,8-dimethylimidazo[1,2-a]pyridin-6-yl)-7-(piperazin-1-yl)-4H-pyrido[1,2-a]pyrimidin-4-one]	< 0.1 µM	***** (a fold increase >1.65 is indicated by five stars (*****))	270 to 274 °C	**** (an EC1.5x≤0.3 μM is indicated by four stars (****))
COc1ccc(-c2cc(=O)n3cc(N4CCN[C@@H](C)C4)cc(C)c3n2)cc1OC [Compound 142, 2-(3,4-dimethoxyphenyl)-9-methyl-7-[(3S)-3-methylpiperazin-1-yl]-4H-pyrido[1,2-a]pyrimidin-4-one]	0.3 to 1 µM	*** (a fold increase between >1.35 and ≤1.5 is indicated by three stars (***))	176 to 182 °C	
COc1ccc(-c2cc(=O)n3cc(N4CCN(O)CC4)ccc3n2)cc1OC [Compound 146, 2-(3,4-dimethoxyphenyl)-7-(4-hydroxypiperazin-1-yl)-4H-pyrido[1,2-a]pyrimidin-4-one]	1 to 3 µM	* (A maximum fold increase of ≤1.2 is indicated by one star (*))	202 to 204 °C	
COc1ccc(-c2cc(=O)n3cc(N4CC[C@H](N(C)C)C4)ccc3n2)cc1OC [Compound 147, 2-(3,4-dimethoxyphenyl)-7-[(3S)-3-(dimethylamino)pyrrolidin-1-yl]-4H-pyrido[1,2-a]pyrimidin-4-one]	1 to 3 µM	* (A maximum fold increase of ≤1.2 is indicated by one star (*))	156 to 158 °C	
COc1ccc(-c2cc(=O)n3cc(N4CCC(N(C)C)CC4)ccc3n2)cc1OC [Compound 148, 2-(3,4-dimethoxyphenyl)-7-[4-(dimethylamino)piperidin-1-yl]-4H-pyrido[1,2-a]pyrimidin-4-one]	0.1 to 0.3 µM	*** (a fold increase between >1.35 and ≤1.5 is indicated by three stars (***))	158 to 161 °C	** (an EC1.5× between >1 μM and ≤3 μM is indicated by two stars (**))
COc1ccc(-c2cc(=O)n3cc(N4CCNCC4)ccc3n2)cc1C [Compound 149, 2-(4-methoxy-3-methylphenyl)-7-(piperazin-1-yl)-4H-pyrido[1,2-a]pyrimidin-4-one]	0.3 to 1 µM	** (a fold increase between >1.2 and ≤1.35 is indicated by two stars (**))	198 to 203 °C	
N#Cc1cccc(-c2cc(=O)n3cc(N4CCNCC4)ccc3n2)c1 [Compound 150, 3-[4-oxo-7-(piperazin-1-yl)-4H-pyrido[1,2-a]pyrimidin-2-yl]benzonitrile]	0.3 to 1 µM	**** (a fold increase between >1.5 and ≤1.65 is indicated by four stars (****))	224 to 231 °C	** (an EC1.5× between >1 μM and ≤3 μM is indicated by two stars (**))
COc1ccc(-c2cc(=O)n3cc(N4CCNCC4)ccc3n2)cc1C#N [Compound 151, 2-methoxy-5-[4-oxo-7-(piperazin-1-yl)-4H-pyrido[1,2-a]pyrimidin-2-yl]benzonitrile]	0.1 to 0.3 µM	*** (a fold increase between >1.35 and ≤1.5 is indicated by three stars (***))	191 to 197 °C	
O=c1cc(-c2ccc(O)c(F)c2)nc2ccc(N3CCNCC3)cn12 [Compound 152, 2-(3-fluoro-4-hydroxyphenyl)-7-(piperazin-1-yl)-4H-pyrido[1,2-a]pyrimidin-4-one]	0.1 to 0.3 µM	***** (a fold increase >1.65 is indicated by five stars (*****))	259 to 266 °C	**** (an EC1.5x≤0.3 μM is indicated by four stars (****))
O=c1cc(-c2ccc(OCC(F)(F)F)c(F)c2)nc2ccc(N3CCNCC3)cn12 [Compound 154, 2-[3-fluoro-4-(2,2,2-trifluoroethoxy)phenyl]-7-(piperazin-1-yl)-4H-pyrido[1,2-a]pyrimidin-4-one]	1 to 3 µM	* (A maximum fold increase of ≤1.2 is indicated by one star (*))	198 to 201 °C	
Cc1nc2cc(-c3cc(=O)n4cc(N5CCNCC5)ccc4n3)ccc2o1 [Compound 155, 2-(2-methyl-1,3-benzoxazol-5-yl)-7-(piperazin-1-yl)-4H-pyrido[1,2-a]pyrimidin-4-one]	0.1 to 0.3 µM	** (a fold increase between >1.2 and ≤1.35 is indicated by two stars (**))	178 to 183 °C	
Cc1ccc(-c2cc(=O)n3cc(N4CCNCC4)ccc3n2)cc1F [Compound 157, 2-(3-fluoro-4-methylphenyl)-7-(piperazin-1-yl)-4H-pyrido[1,2-a]pyrimidin-4-one]	1 to 3 µM	** (a fold increase between >1.2 and ≤1.35 is indicated by two stars (**))	174 to 176 °C	
Cc1ccc(-c2cc(=O)n3cc(N4CCN[C@@H](C)C4)ccc3n2)cc1F [Compound 158, 2-(3-fluoro-4-methylphenyl)-7-[(3S)-3-methylpiperazin-1-yl]-4H-pyrido[1,2-a]pyrimidin-4-one]	1 to 3 µM	* (A maximum fold increase of ≤1.2 is indicated by one star (*))	175 to 178 °C	
COc1ccc(-c2cc(=O)n3cc(N4CC[C@H](N)C4)ccc3n2)cc1OC [Compound 159, 7-[(3S)-3-aminopyrrolidin-1-yl]-2-(3,4-dimethoxyphenyl)-4H-pyrido[1,2-a]pyrimidin-4-one]	1 to 3 µM	*** (a fold increase between >1.35 and ≤1.5 is indicated by three stars (***))	148 to 151 °C	
Cc1nc2cc(-c3cc(=O)n4cc(N5CCCNCC5)ccc4n3)ccc2s1 [Compound 161, 7-(1,4-diazepan-1-yl)-2-(2-methyl-1,3-benzothiazol-5-yl)-4H-pyrido[1,2-a]pyrimidin-4-one]	0.3 to 1 µM	*** (a fold increase between >1.35 and ≤1.5 is indicated by three stars (***))	208 to 212 °C	** (an EC1.5× between >1 μM and ≤3 μM is indicated by two stars (**))
Cc1csc(-c2cc(=O)n3cc(N4CCN[C@@H](C)C4)ccc3n2)n1 [Compound 162, 7-[(3S)-3-methylpiperazin-1-yl]-2-(4-methyl-1,3-thiazol-2-yl)-4H-pyrido[1,2-a]pyrimidin-4-one]	0.3 to 1 µM	**** (a fold increase between >1.5 and ≤1.65 is indicated by four stars (****))	225 to 230 °C	** (an EC1.5× between >1 μM and ≤3 μM is indicated by two stars (**))
COc1ccc(-c2cc(=O)n3cc(N4CC[C@H](NC(C)C)C4)ccc3n2)cc1OC [Compound 165, 2-(3,4-dimethoxyphenyl)-7-[(3S)-3-(propan-2-ylamino)pyrrolidin-1-yl]-4H-pyrido[1,2-a]pyrimidin-4-one]	1 to 3 µM	** (a fold increase between >1.2 and ≤1.35 is indicated by two stars (**))	169 to 172 °C	
COc1ccc(-c2cc(=O)n3cc(N4CCCN(C)CC4)ccc3n2)cc1F [Compound 166, 2-(3-fluoro-4-methoxyphenyl)-7-(4-methyl-1,4-diazepan-1-yl)-4H-pyrido[1,2-a]pyrimidin-4-one]	0.3 to 1 µM	** (a fold increase between >1.2 and ≤1.35 is indicated by two stars (**))	176 to 178 °C	
COc1ccc(-c2cc(=O)n3cc(N4CCNCC4)ccc3n2)cc1[N+](=O)[O-] [Compound 167, 2-(4-methoxy-3-nitrophenyl)-7-(piperazin-1-yl)-4H-pyrido[1,2-a]pyrimidin-4-one]	< 0.1 µM	*** (a fold increase between >1.35 and ≤1.5 is indicated by three stars (***))	183 to 187 °C	** (an EC1.5× between >1 μM and ≤3 μM is indicated by two stars (**))

Reference: patent US11753407B2, “Compounds for treating spinal muscular atrophy” (PTC Therapeutics, Inc., priority 2012, dated 2023)
